Reference: patent US12257306B2, “Antiviral prodrugs and nanoformulations thereof” (Board of Regents of the University of Nebraska, priority 2018, dated 2025)

Experiments:
HIV-1 = settings: plasma, cited from earlier work; for 4×PA-IC90: four times protein-adjusted 90% inhibitory concentration
HIV-1ADA = test: Antiretroviral efficacy of prodrugs by HIV reverse transcriptase (RT) activity in MDM; type: cell-based; settings: MDM treated 8 hours, 0.01-1000 nM, challenged with HIV-1ADA MOI 0.01; FIG. 2A
Method: The DTG prodrugs M3DTG and M4DTG were studied. First, antiretroviral efficacy was determined by measurement of HIV reverse transcriptase (RT) activity. To assess antiretroviral efficacy, monocyte-derived macrophage (MDM) were treated with either M3DTG or M4DTG for 8 hours over a range of concentrations (0.01-1000 nM). Drug was dosed in 0.1% (v/v) DMSO in media. After treatment, cells were washed with PBS to remove excess of free drug and nanoparticles and the cells were cultured with fresh media, with half-media exchanges every other day. The MDM were challenged with HIV-1ADA at a MOI of 0.01 infectious viral particles/cell for up to 30 days. Progeny virion production was measured by RT activity in culture medium (Kalter, et al. (1992) J. Clin. Microbiol., 30(4):993-995).

Row | Structure (SMILES) | 4×PA-IC90 (HIV-1) | PA-IC90 (HIV-1; protein-adjusted 90% inhibitory concentration) | antiretroviral activity (HIV-1 RT activity) (HIV-1ADA)
1 | C[C@H]1CO[C@@H]2Cn3cc(C(=O)NCc4ccc(F)cc4F)c(=O)c(O)c3C(=O)N12 [CAB, cabotegravir] | 660 ng/mL | – | –
2 | C[C@@H]1CCO[C@H]2Cn3cc(C(=O)NCc4ccc(F)cc4F)c(=O)c(O)c3C(=O)N12 [DTG, dolutegravir] | 256 ng/mL | 64 ng/mL | –
3 | C[C@@H]1CCO[C@H]2Cn3cc(C(=O)NCc4ccc(F)cc4F)c(=O)c(OC(=O)CCCCCCCC(=O)Oc4c5n(cc(C(=O)NCc6ccc(F)cc6F)c4=O)C[C@@H]4OCC[C@@H](C)N4C5=O)c3C(=O)N12 [M3DTG] | – | – | significant antiretroviral activity
